Assay results published in PubChem BioAssay (NCI).
Values joined by “and” are separate entries in the source; they are usually repeats but may differ in a detail not shown here. Identical values can stand only once.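 GI50 = concentration required for 50% inhibition of growth. Definition used: TGI = concentration required for complete inhibition of growth.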

Columns and labels:
Test in all cases: DTP human tumour cell line panel, 384-well format
[1] = tested on: LOX IMVI melanoma
[2] = tested on: SN12C renal
[3] = tested on: SNB-19 CNS
[4] = tested on: OVCAR-5 ovarian
[5] = tested on: HCC-2998 colon
[6] = tested on: SK-MEL-2 melanoma
[7] = tested on: A498 renal
[8] = tested on: MDA-MB-231 breast
[9] = tested on: HT29 colon
[10] = tested on: NCI/ADR-RES ovarian
[11] = tested on: SW-620 colon
[12] = tested on: U251 glioblastoma
[13] = tested on: CCRF-CEM leukemia
[14] = tested on: HL-60(TB) leukemia
[15] = tested on: PC-3 prostate
[16] = tested on: HOP-92 NSCLC
[17] = tested on: OVCAR-8 ovarian
[18] = tested on: RXF 393 renal
[19] = tested on: UACC-257 melanoma
[20] = tested on: SF-268 CNS
[21] = tested on: NCI-H322M lung
[22] = tested on: SF-539 CNS
[23] = tested on: OVCAR-4 ovarian
[24] = tested on: HCT-15 colon
[25] = tested on: SNB-75 CNS
[26] = tested on: NCI-H522 lung
[27] = tested on: NCI-H23 lung
[28] = tested on: ACHN renal
[29] = tested on: OVCAR-3 ovarian
[30] = tested on: IGROV1 ovarian
[31] = tested on: 786-0 renal
[32] = tested on: UO-31 renal
[33] = tested on: SK-OV-3 ovarian
[34] = tested on: RPMI-8226 leukemia
[35] = tested on: K-562 leukemia
[36] = tested on: HOP-62 NSCLC
[37] = tested on: BT-549 breast
[38] = tested on: EKVX NSCLC
[39] = tested on: M14 melanoma
[40] = tested on: UACC-62 melanoma
[41] = tested on: SR leukemia
[42] = tested on: SK-MEL-5 melanoma
[43] = tested on: TK-10 renal
[44] = tested on: MDA-MB-468 breast
[45] = tested on: A549 NSCLC
[46] = tested on: CAKI-1 renal
[47] = tested on: MALME-3M melanoma
[48] = tested on: NCI-H460 NSCLC
[49] = tested on: MDA-MB-435 melanoma
[50] = tested on: HCT-116 colon
[51] = tested on: KM12 colon
[52] = tested on: MOLT-4 leukemia
[53] = tested on: SK-MEL-28 melanoma
[54] = tested on: HS 578T breast
[55] = tested on: NCI-H226 lung
[56] = tested on: DU-145 prostate
[57] = tested on: T-47D breast
[58] = tested on: SF-295 CNS
[59] = tested on: MCF7 breast
[60] = tested on: COLO 205 colon

For `COc1cccc2c1C(=O)c1c(O)c3c(c(O)c1C2=O)C[C@@](O)(C(=O)CO)C[C@@H]3OC1CC(N)C(O)C(C)O1` (stereo partly specified), the GI50 [1] was 32 nM and 23.9 nM and 21.9 nM, the TGI [1] was 235 nM and 157 nM and 163 nM and the GI50 [2] was 35.8 nM and 31.4 nM and 33.5 nM. The TGI [2] was 162 nM and 166 nM and 181 nM, the GI50 [3] was 36.2 nM and 32.2 nM and 34.3 nM and the GI50 [4] was 194 nM and 260 nM and 159 nM. The TGI [4] was 1040 nM and 2130 nM and 720 nM, the GI50 [5] was 35.6 nM and 17.6 nM and the TGI [5] was 176 nM and 92.6 nM. For the same compound, the GI50 [6] was 56.5 nM and 86 nM and 68.1 nM, the TGI [6] was 128 nM and 179 nM and 130 nM and the GI50 [7] was 38.2 nM and 30.6 nM and 50.9 nM. For the same compound, the TGI [7] was 472 nM and 184 nM and 244 nM, the GI50 [8] was 81.5 nM and 43.4 nM and 36.9 nM and the TGI [8] was 523 nM and 275 nM and 318 nM. The GI50 [9] was 114 nM and 119 nM and 106 nM, the TGI [9] was 490 nM and 303 nM and 263 nM and the GI50 [10] was 5900 nM and 7690 nM and 22600 nM. The TGI [10] was 24300 nM and 34300 nM and > 100000 nM, the GI50 [11] was 23.3 nM and 44.8 nM and 19.6 nM and the TGI [11] was 463 nM and 741 nM and 501 nM. The GI50 [12] was 20 nM and 18.4 nM and 14.3 nM, the GI50 [13] was 8.6 nM and < 11.2 nM and < 10 nM and the TGI [13] was 27.4 nM and 19.4 nM and 17.7 nM. The GI50 [14] was 5.95 nM and < 10 nM, the TGI [14] was 14.5 nM and 11.8 nM and the GI50 [15] was 189 nM and 154 nM and 139 nM. For the same compound, the TGI [15] was 765 nM and 626 nM and 467 nM, the GI50 [16] was 24.6 nM and 35.9 nM and 66.9 nM and the GI50 [17] was 76.4 nM and 55.9 nM and 58 nM. For the same compound, the TGI [17] was 466 nM and 236 nM and 223 nM, the GI50 [18] was 37.2 nM and 41 nM and 117 nM and the TGI [18] was 211 nM and 114 nM and 274 nM. For the same compound, the GI50 [19] was 109 nM and 118 nM and 125 nM, the TGI [19] was 389 nM and 255 nM and 261 nM and the GI50 [20] was 35.2 nM and 32.6 nM and 36.3 nM. The TGI [20] was 207 nM and 138 nM and 213 nM, the GI50 [21] was 365 nM and 270 nM and 326 nM and the TGI [21] was 985 nM and 914 nM and 1830 nM. For the same compound, the GI50 [22] was 39.9 nM and 34.8 nM and 35.8 nM, the TGI [22] was 264 nM and 168 nM and 173 nM and the GI50 [23] was 310 nM and 246 nM and 263 nM. For the same compound, the TGI [23] was 983 nM and 954 nM and 1910 nM, the GI50 [24] was 202 nM and 111 nM and 89 nM and the TGI [24] was 2130 nM and 1360 nM and 1490 nM. For the same compound, the GI50 [25] was 40.3 nM and 31.7 nM and 43.3 nM, the TGI [25] was 126 nM and 100 nM and 174 nM and the GI50 [26] was 25.3 nM and 18 nM and 11.1 nM. The TGI [26] was 75.6 nM and 69.7 nM and 117 nM, the GI50 [27] was 43 nM and 27.4 nM and 28.5 nM and the TGI [27] was 126 nM and 89 nM and 133 nM. For the same compound, the GI50 [28] was 69.2 nM and 64 nM and 171 nM, the TGI [28] was 407 nM and 287 nM and 591 nM and the GI50 [29] was 73.4 nM and 116 nM. The TGI [29] was 539 nM and 821 nM, the GI50 [30] was 72.5 nM and 46.7 nM and the TGI [30] was 1220 nM and 231 nM. The GI50 [31] was 42.9 nM and 25.3 nM and 46.5 nM, the TGI [31] was 227 nM and 226 nM and 1070 nM and the GI50 [32] was 360 nM and 508 nM and 907 nM. The TGI [32] was 1630 nM and 1530 nM and 2280 nM, the GI50 [33] was 68.1 nM and 75.6 nM and 80.2 nM and the TGI [33] was 334 nM and 377 nM and 409 nM. The GI50 [34] was 7.64 nM and 11.2 nM and < 10 nM, the TGI [34] was 40.3 nM and 24.6 nM and 21.9 nM and the GI50 [35] was 39.7 nM and 43.9 nM and 45.6 nM. The TGI [35] was 340 nM and 245 nM and 229 nM, the GI50 [36] was 40.6 nM and 23.8 nM and 34.4 nM and the TGI [36] was 145 nM and 91.6 nM and 125 nM. The GI50 [37] was 23.3 nM and 18.2 nM and 13.6 nM, the TGI [37] was 128 nM and 70.2 nM and 130 nM and the GI50 [38] was 165 nM and 248 nM and 419 nM. For the same compound, the TGI [38] was 704 nM and 1280 nM and 4790 nM, the GI50 [39] was 51.6 nM and 44.6 nM and 37.1 nM and the TGI [39] was 200 nM and 182 nM and 190 nM. The GI50 [40] was 25.3 nM and 28.6 nM and 14.8 nM, the TGI [40] was 133 nM and 155 nM and 142 nM and the GI50 [41] was 4 nM. The TGI [41] was 7.78 nM, the GI50 [42] was 41.1 nM and 13.1 nM and the TGI [42] was 166 nM and 58.6 nM. For the same compound, the GI50 [43] was 78 nM and 88.7 nM, the TGI [43] was 461 nM and 328 nM and the GI50 [44] was 26.2 nM and 14.8 nM and 12.7 nM. For the same compound, the TGI [44] was 70 nM and 36.6 nM and 28.3 nM, the GI50 [45] was 58.7 nM and 26.3 nM and 41.3 nM and the TGI [45] was 473 nM and 188 nM and 222 nM. The GI50 [46] was 41.9 nM and 25 nM, the TGI [46] was 504 nM and 160 nM and the GI50 [47] was 38.1 nM and 45.6 nM and 54.7 nM. For the same compound, the TGI [47] was 153 nM and 166 nM and 191 nM, the GI50 [48] was 9.14 nM and the TGI [48] was 86.1 nM and 98.9 nM. The GI50 [49] was 219 nM and 232 nM and 150 nM, the TGI [49] was 632 nM and 669 nM and 599 nM and the GI50 [50] was 29.4 nM and 16.5 nM. The TGI [50] was 972 nM and 151 nM, the GI50 [51] was 39.6 nM and 41 nM and the TGI [51] was 423 nM and 212 nM. For the same compound, the GI50 [52] was 4.08 nM and < 10 nM, the TGI [52] was 7.81 nM and the GI50 [53] was 84.4 nM and 72.7 nM and 101 nM. For the same compound, the TGI [53] was 336 nM and 208 nM and 237 nM, the GI50 [54] was 16.7 nM and 26.9 nM and 109 nM and the TGI [54] was 133 nM and 141 nM and 322 nM. The GI50 [55] was 34.4 nM and 36.8 nM and 75.2 nM, the TGI [55] was 131 nM and 156 nM and 299 nM and the GI50 [56] was 33.7 nM and 18.5 nM. For the same compound, the TGI [56] was 148 nM and 214 nM, the GI50 [57] was 32.9 nM and 32 nM and 40.8 nM and the GI50 [58] was 49.2 nM and 32.3 nM and 52.2 nM. The TGI [58] was 169 nM and 135 nM and 447 nM, the GI50 [59] was 34 nM and 22.8 nM and 19.1 nM and the TGI [59] was 3210 nM and 1370 nM and 12200 nM. The GI50 [60] was 17.8 nM and the TGI [60] was 328 nM and 179 nM.
